For 23 molecules, IC50 results are on record in patent US8431556B2, “C-21-keto lupane derivatives preparation and use thereof” (Vertex Pharmaceuticals Incorporated, priority 2008, dated 2013).

As usually defined, the IC50 is the concentration that inhibits the measured activity by half.

In the first assay the test system is HIV-1 (HIVIIIB). Kind of assay: HIV-1 replication in MT2 cell line with and without 30% human serum (viral RT activity in supernatant). Type of assay: cell-based. The conditions noted are these: Human immunodeficiency virus 1, MT2, MT-2 cells, with 30% human serum, average IC50 if tested more than once, read-out: MT-2 (HIVIIIB) with 30% HS IC50 range. As to the method: HIV-1 Replication in MT2 cell line with and without 30% human serum: The cells are infected at a Multiciplicity of Infection (MOI) of 0.5 for 3 h and then washed twice with complete media to remove residual virus. Cells are then resuspended at 0.5×10^6/ml in complete medium (RPMI, 10% FBS, 1% sodium pyruvate), and seeded into 96-well plates (6.25×10^4/well). The cells are cultured in the presence or absence of various concentrations of test compounds in serial dilutions for 3 days at 37° C. The test compounds are serially diluted in complete medium supplemented or not with 30% human serum. After 3 days, 100 μL of cultured medium with cells are replaced with 120 μL of freshly diluted test compounds in complete medium containing or not 30% Human serum. The level of HIV-1 replication is determined at days 5 after infection by the presence of viral RT activity in harvested supernatant fluid. The IC50 and IC90 values for the virus replication are determined by using GRAPHPAD PRISM software.
The IC50 of the compounds tested in accordance with the HIV replication activity assay MT-2 (HIVIIIB) are represented in Table 4 (without HS) and Table 5 (with 30% HS)
In the case of `CC(C)C1=C2[C@H]3CC[C@@H]4[C@@]5(C)CC[C@H](OC(=O)CC(C)(C)C(=O)O)C(C)(C)[C@@H]5CC[C@@]4(C)[C@]3(C)CC[C@@]2(C(=O)NC(C)c2ccccc2)CC1=O` (stereo partly drawn) [9-33, 3β-O-(3′,3′-Dimethylsuccinyl)-21-oxolup-18-en-28-oic acid N-(1-phenyl-ethyl)-acetamide], the IC50 was < 199 nM.

With `CC(C)C1=C2[C@H]3CC[C@@H]4[C@@]5(C)CC[C@H](OC(=O)CC(C)(C)C(=O)O)C(C)(C)[C@@H]5CC[C@@]4(C)[C@]3(C)CC[C@@]2(C(=O)N2CCCCC2)CC1=O` [9-6, 3β-O-(3′,3′-Dimethylsuccinyl)-21-oxolup-18-en-28-oic acid N-piperidinyl acetamide], the IC50 was < 199 nM.

Take `COC(=O)N1CCN(C(=O)[C@@]23CC[C@]4(C)[C@H](CC[C@@H]5[C@@]6(C)CC[C@H](OC(=O)CC(C)(C)C(=O)O)C(C)(C)[C@@H]6CC[C@]54C)C2=C(C(C)C)C(=O)C3)CC1` [9-40, 3β-O-(3′,3′-Dimethylsuccinyl)-21-oxolup-18-en-28-oic acid N-1-acetyl-piperazine-4-carboxylic acid methyl ester]: the IC50 was < 199 nM.

As for `CC(C)NC(=O)N1CCN(C(=O)[C@@]23CC[C@]4(C)[C@H](CC[C@@H]5[C@@]6(C)CC[C@H](OC(=O)CC(C)(C)C(=O)O)C(C)(C)[C@@H]6CC[C@]54C)C2=C(C(C)C)C(=O)C3)CC1` [9-39, 3β-O-(3′,3′-Dimethylsuccinyl)-21-oxolup-18-en-28-oic acid N-(4-N′-isopropylureido-1-piperazine)-acetamide], the 50% inhibitory concentration (IC50) is < 199 nM.

With `CCOC(=O)NC1CCN(C(=O)[C@@]23CC[C@]4(C)[C@H](CC[C@@H]5[C@@]6(C)CC[C@H](OC(=O)CC(C)(C)C(=O)O)C(C)(C)[C@@H]6CC[C@]54C)C2=C(C(C)C)C(=O)C3)CC1` [9-67, 3β-O-(3′,3′-Dimethylsuccinyl)-21-oxolup-18-en-28-oic acid N-(4-aminocarboxylic acid ethyl ester-1-piperidine)-acetamide], the half-inhibitory concentration (IC50) is < 199 nM.

For `Cc1nnc(NC(=O)[C@@]23CC[C@]4(C)[C@H](CC[C@@H]5[C@@]6(C)CC[C@H](OC(=O)CC(C)(C)C(=O)O)C(C)(C)[C@@H]6CC[C@]54C)C2=C(C(C)C)C(=O)C3)s1` [9-76, 3β-O-(3′,3′-Dimethylsuccinyl)-21-oxolup-18-en-28-oic acid N-(5-methyl-[1,3,4]thiadiazol-2-yl)-acetamide], the half-maximal inhibitory concentration (IC50) was < 199 nM.

On to `CC(C)C1=C2[C@H]3CC[C@@H]4[C@@]5(C)CC[C@H](OC(=O)CC(C)(C)C(=O)O)C(C)(C)[C@@H]5CC[C@@]4(C)[C@]3(C)CC[C@@]2(C(=O)Nc2ncccn2)CC1=O` [9-38, 3β-O-(3′,3′-Dimethylsuccinyl)-21-oxolup-18-en-28-oic acid N-pyrimidin-2-yl-acetamide], for which the IC50 is < 199 nM.

With `Cc1ccc(NC(=O)[C@@]23CC[C@]4(C)[C@H](CC[C@@H]5[C@@]6(C)CC[C@H](OC(=O)CC(C)(C)C(=O)O)C(C)(C)[C@@H]6CC[C@]54C)C2=C(C(C)C)C(=O)C3)cc1` [9-49, 3β-O-(3′,3′-Dimethylsuccinyl)-21-oxolup-18-en-28-oic acid N-4-methyl-phen-1-yl acetamide], the IC50 was < 199 nM.

On to `CC(C)C1=C2[C@H]3CC[C@@H]4[C@@]5(C)CC[C@H](OC(=O)CC(C)(C)C(=O)O)C(C)(C)[C@@H]5CC[C@@]4(C)[C@]3(C)CC[C@@]2(C(=O)Nc2cnccn2)CC1=O` [9-59, 3β-O-(3′,3′-Dimethylsuccinyl)-21-oxolup-18-en-28-oic acid N-pyrazin-2-yl-acetamide], for which the IC50 was < 199 nM.

Consider `CC(C)C1=C2[C@H]3CC[C@@H]4[C@@]5(C)CC[C@H](OC(=O)CC(C)(C)C(=O)O)C(C)(C)[C@@H]5CC[C@@]4(C)[C@]3(C)CC[C@@]2(C(=O)NC(C)C(F)(F)F)CC1=O` (stereo partly drawn) [9-75, 3β-O-(3′,3′-Dimethylsuccinyl)-21-oxolup-18-en-28-oic acid N-(2,2,2-trifluoro-1-methyl-ethyl)-acetamide], for which the concentration for half-maximal inhibition (IC50) is < 199 nM.

For the molecule `Cc1cccc(NC(=O)[C@@]23CC[C@]4(C)[C@H](CC[C@@H]5[C@@]6(C)CC[C@H](OC(=O)CC(C)(C)C(=O)O)C(C)(C)[C@@H]6CC[C@]54C)C2=C(C(C)C)C(=O)C3)c1` [9-48, 3β-O-(3′,3′-Dimethylsuccinyl)-21-oxolup-18-en-28-oic acid N-3-methyl-phen-1-yl acetamide], the IC50 was < 199 nM.

`COC(=O)NC1CCN(C(=O)[C@@]23CC[C@]4(C)[C@H](CC[C@@H]5[C@@]6(C)CC[C@H](OC(=O)CC(C)(C)C(=O)O)C(C)(C)[C@@H]6CC[C@]54C)C2=C(C(C)C)C(=O)C3)CC1` [9-45, 3β-O-(3′,3′-Dimethylsuccinyl)-21-oxolup-18-en-28-oic acid N-(4-aminocarboxylic acid methyl ester-1-piperidine)-acetamide]: the IC50 was < 199 nM.

Regarding `CC(C)C1=C2C3CCC4[C@@]5(C)CC[C@H](OC(=O)CC(C)(C)C(=O)O)C(C)(C)C5CC[C@@]4(C)[C@]3(C)CC[C@@]2(C(=O)Nc2ccccc2Cl)CC1=O` (stereo partly drawn) [9-86, 3β-O-(3′,3′-Dimethylsuccinyl)-21-oxolup-18-en-28-oic acid N-2-chloro-phen-1-yl acetamide], the 50% inhibitory concentration (IC50) is < 199 nM.

`CC(C)NC(=O)NCCNC(=O)[C@@]12CC[C@]3(C)[C@H](CC[C@@H]4[C@@]5(C)CC[C@H](OC(=O)CC(C)(C)C(=O)O)C(C)(C)[C@@H]5CC[C@]43C)C1=C(C(C)C)C(=O)C2` [9-23, 3β-O-(3′,3′-Dimethylsuccinyl)-21-oxolup-18-en-28-oic acid N-[2-(3-isopropyl-ureido)-ethyl]-acetamide]: the IC50 is < 199 nM.

For the molecule `CC(C)C1=C2[C@H]3CC[C@@H]4[C@@]5(C)CC[C@H](OC(=O)CC(C)(C)C(=O)O)C(C)(C)[C@@H]5CC[C@@]4(C)[C@]3(C)CC[C@@]2(C(=O)Nc2ccnn2C)CC1=O` [9-54, 3β-O-(3′,3′-Dimethylsuccinyl)-21-oxolup-18-en-28-oic acid N-5-amino-1-methyl-1H-pyrazole acetamide], the IC50 was < 199 nM.

`CC(C)C1=C2[C@H]3CC[C@@H]4[C@@]5(C)CC[C@H](OC(=O)CC(C)(C)C(=O)O)C(C)(C)[C@@H]5CC[C@@]4(C)[C@]3(C)CC[C@@]2(C(=O)Nc2ccn(C)n2)CC1=O` [9-53, 3β-O-(3′,3′-Dimethylsuccinyl)-21-oxolup-18-en-28-oic acid N-3-amino-1-methyl-1H-pyrazole-acetamide]: the IC50 is < 199 nM.

Turning to `CC(C)C1=C2[C@H]3CC[C@@H]4[C@@]5(C)CC[C@H](OC(=O)CC(C)(C)C(=O)O)C(C)(C)[C@@H]5CC[C@@]4(C)[C@]3(C)CC[C@@]2(C(=O)Nc2nnnn2C)CC1=O` [9-66, 3β-O-(3′,3′-Dimethylsuccinyl)-21-oxolup-18-en-28-oic acid N-(1-methyl-1H-tetrazol-5-yl)-acetamide], the IC50 was in the range of 200 to 999 nM.

For `Cc1ccccc1NC(=O)[C@@]12CC[C@]3(C)[C@H](CC[C@@H]4[C@@]5(C)CC[C@H](OC(=O)CC(C)(C)C(=O)O)C(C)(C)[C@@H]5CC[C@]43C)C1=C(C(C)C)C(=O)C2` [9-47, 3β-O-(3′,3′-Dimethylsuccinyl)-21-oxolup-18-en-28-oic acid N-2-methyl-phen-1-yl acetamide], the IC50 was < 199 nM.

As for `CC(C)C1=C2C3CCC4[C@@]5(C)CC[C@H](OC(=O)CC(C)(C)C(=O)O)C(C)(C)C5CC[C@@]4(C)[C@]3(C)CC[C@@]2(C(=O)NC[C@@H]2CCCN2C)CC1=O` (stereo partly drawn) [9-84, 3β-O-(3′,3′-Dimethylsuccinyl)-21-oxolup-18-en-28-oic acid N-((S)-1-methyl-pyrrolidin-2-ylmethyl)-acetamide], the IC50 was < 199 nM.

As to `CC(C)C1=C2[C@H]3CC[C@@H]4[C@@]5(C)CC[C@H](OC(=O)CC(C)(C)C(=O)O)C(C)(C)[C@@H]5CC[C@@]4(C)[C@]3(C)CC[C@@]2(C(=O)Nc2cncnc2)CC1=O` [9-51, 3β-O-(3′,3′-Dimethylsuccinyl)-21-oxolup-18-en-28-oic acid N-pyrimidin-5-yl-acetamide], the IC50 was < 199 nM.

For `CC(C)C1=C2C3CCC4[C@@]5(C)CC[C@H](OC(=O)CC(C)(C)C(=O)O)C(C)(C)C5CC[C@@]4(C)[C@]3(C)CC[C@@]2(C(=O)Nc2nnn(C)n2)CC1=O` (stereo partly drawn) [9-90, 3β-O-(3′,3′-Dimethylsuccinyl)-21-oxolup-18-en-28-oic acid N-(1-methyl-1H-tetrazol-3-yl)-acetamide], the half-maximal inhibitory concentration (IC50) is < 199 nM.

As to `CC(C)C1=C2[C@H]3CC[C@@H]4[C@@]5(C)CC[C@H](OC(=O)CC(C)(C)C(=O)O)C(C)(C)[C@@H]5CC[C@@]4(C)[C@]3(C)CC[C@@]2(C(=O)N2CCC(F)(F)CC2)CC1=O` [9-94, 3β-O-(3′,3′-Dimethylsuccinyl)-21-oxolup-18-en-28-oic acid N-4,4-difluoro-piperidine acetamide], the IC50 is < 199 nM.

The assay is the same for the next values; noted with them: Human immunodeficiency virus 1, MT2, MT-2 cells, without HS, average IC50 if tested more than once, read-out: MT-2 (HIVIIIB) IC50 range.
Regarding `CC(C)C1=C2[C@H]3CC[C@@H]4[C@@]5(C)CC[C@H](OC(=O)CC(C)(C)C(=O)O)C(C)(C)[C@@H]5CC[C@@]4(C)[C@]3(C)CC[C@@]2(C(=O)NCc2cccc(Cl)c2)CC1=O` [9-13, 3β-O-(3′,3′-Dimethylsuccinyl)-21-oxolup-18-en-28-oic acid N-3-chloro-benzylamide], the IC50 is < 199 nM.
